Three compounds from ChEMBL document CHEMBL1201862, “PubChem BioAssay data set” (2004) can be followed below.

Active and inactive are the calls of the source.

A short description of assay [1]: general cell-killing toxicity readout – plate reader, dry powder samples, cytotoxicity control for PAX8 inhibitor project, dose response (AID 743021). In kind it is functional, cell-based.
Another assay addresses Melanocortin receptor 4 (Homo sapiens, UniProt P32245). Nature of the assay: inhibitors of MC4R cAMP signaling – cell-based, TR-FRET, biased antagonists, dose response (AID 602298).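 Further: antagonist potency against agonist-stimulated cAMP production.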 In kind it is functional. A general note: Time-resolved FRET reads energy transfer from a long-lived donor to a nearby acceptor.
In assay [2] the target is G-protein coupled receptor 35 (Homo sapiens, UniProt Q9HC97). Description: inhibition of zaprinast-stimulated GPR35 beta-arrestin translocation – imaging, U2OS, beta-arrestin-GFP, zaprinast agonist, primary screen (AID 2058).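 Further: antagonist potency meaning inhibition of agonist-induced arrestin redistribution.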 The assay is classed as functional.
Another assay deals with INS1. Nature of the assay: INS-1E survival protection against cytokine death – cell-based, luminescence, retest, dose response (AID 449756).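 Further: cell death triggered by IL-1 beta plus TNF-alpha plus IFN-gamma mixture; protective hits raise ATP signal compared with cytokine alone wells.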 The note with it: Rattus norvegicus. The assay is classed as functional.
Assay [3] can be described thus: luciferase reporter signal suppression in cells – H4 neuroglioma cells, luminescence, dose response (AID 1990). In kind it is functional, cell-based. In general terms: A reporter such as luciferase makes a cellular process visible.
Another assay has as its target Beta Lactamase (Pseudomonas aeruginosa, UniProt Q932Y6). Description: BLA reporter interference, concentration series – BLA reporter cells, FRET fluorescence, artefact control for TLR9-MyD88 binding inhibitor project, dose response (AID 588341).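 Further: cell based assay in CHO-K1 cells stably expressing beta-lactamase.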 The assay is classed as cell-based.
Another assay relates to Streptococcus. Nature of the assay: Luminescence Microorganism-Based Dose Response Follow up to Identify Compounds Cytotoxic to Streptococcus. [Related pubchem assays: 1677 (Project Summary), 1915, 1914, 1902 (Retest at Dose), 1900 (Counter Screen), 1662 (Primary HTS)]. The assay is classed as functional, organism-based. In general terms: A counterscreen serves to expose hits that act by an unwanted route or on another target.

The nature of assay [4]: alpha-synuclein stem-loop luciferase translation blockers – H4 neuroglioma cells, luminescence, confirmation (AID 1988). The assay is classed as functional, cell-based.
Assay [5] in a line: cAMP pathway inhibition in counterscreen cell line – TR-FRET cAMP detection, counter-screen for MC4R biased antagonist project, dose response (AID 602305).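 Further: U2OS cells stimulated with forskolin near its EC80 as the cAMP inducer; potency is for inhibition of forskolin-stimulated cAMP signaling.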 The assay is classed as functional, cell-based.
The next assay addresses Paired box protein Pax-8 (Homo sapiens, UniProt Q06710). Nature of the assay: PAX8 transcriptional activity inhibition in RMG-I – RMG-I cells, luciferase, cherry-pick, dose response (AID 687027).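 Further: luciferase reporter driven by Pax8 target thyroperoxidase promoter measured by SteadyGlo luminescence.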 The assay is classed as functional, cell-based.
The target of assay [6] is T1, Apoptotic protease-activating factor 1 (Homo sapiens, UniProt O14727).
T1 sequence (O14727 whole entry): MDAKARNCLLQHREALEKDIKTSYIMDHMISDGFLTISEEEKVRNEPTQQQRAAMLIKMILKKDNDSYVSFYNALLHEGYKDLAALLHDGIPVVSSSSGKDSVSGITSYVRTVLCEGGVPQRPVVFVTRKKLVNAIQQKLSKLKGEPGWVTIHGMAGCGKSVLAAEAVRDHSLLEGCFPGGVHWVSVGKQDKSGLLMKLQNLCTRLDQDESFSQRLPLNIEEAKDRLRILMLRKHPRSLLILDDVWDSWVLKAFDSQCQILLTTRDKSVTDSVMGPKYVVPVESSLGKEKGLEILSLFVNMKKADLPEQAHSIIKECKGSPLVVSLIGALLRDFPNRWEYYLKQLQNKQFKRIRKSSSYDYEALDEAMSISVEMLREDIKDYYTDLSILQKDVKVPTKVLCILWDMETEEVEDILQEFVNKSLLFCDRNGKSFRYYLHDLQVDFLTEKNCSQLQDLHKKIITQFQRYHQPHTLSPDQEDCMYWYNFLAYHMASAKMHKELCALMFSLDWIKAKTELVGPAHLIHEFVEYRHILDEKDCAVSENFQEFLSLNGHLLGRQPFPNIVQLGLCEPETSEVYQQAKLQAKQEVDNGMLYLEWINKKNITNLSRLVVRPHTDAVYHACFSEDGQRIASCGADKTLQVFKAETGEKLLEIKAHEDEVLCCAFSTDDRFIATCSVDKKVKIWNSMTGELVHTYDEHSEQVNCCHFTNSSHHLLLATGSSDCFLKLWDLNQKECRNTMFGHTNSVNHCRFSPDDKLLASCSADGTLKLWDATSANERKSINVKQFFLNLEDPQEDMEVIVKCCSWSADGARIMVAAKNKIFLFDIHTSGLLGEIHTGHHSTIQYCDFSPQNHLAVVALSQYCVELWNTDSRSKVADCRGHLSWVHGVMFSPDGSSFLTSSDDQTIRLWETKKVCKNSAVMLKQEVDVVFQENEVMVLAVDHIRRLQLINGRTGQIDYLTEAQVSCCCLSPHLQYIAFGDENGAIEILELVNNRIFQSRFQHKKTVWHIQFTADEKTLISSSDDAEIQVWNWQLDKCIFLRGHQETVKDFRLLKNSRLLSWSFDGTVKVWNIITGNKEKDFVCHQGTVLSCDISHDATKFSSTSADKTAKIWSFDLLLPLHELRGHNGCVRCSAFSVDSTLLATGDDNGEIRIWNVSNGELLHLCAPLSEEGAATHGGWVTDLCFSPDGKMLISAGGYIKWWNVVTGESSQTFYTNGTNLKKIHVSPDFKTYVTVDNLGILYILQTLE
The assay is classed as functional.

The target of assay [7] is T2, Zinc finger protein mex-5 (Caenorhabditis elegans, UniProt Q9XUB2).
T2 sequence (Q9XUB2 whole entry): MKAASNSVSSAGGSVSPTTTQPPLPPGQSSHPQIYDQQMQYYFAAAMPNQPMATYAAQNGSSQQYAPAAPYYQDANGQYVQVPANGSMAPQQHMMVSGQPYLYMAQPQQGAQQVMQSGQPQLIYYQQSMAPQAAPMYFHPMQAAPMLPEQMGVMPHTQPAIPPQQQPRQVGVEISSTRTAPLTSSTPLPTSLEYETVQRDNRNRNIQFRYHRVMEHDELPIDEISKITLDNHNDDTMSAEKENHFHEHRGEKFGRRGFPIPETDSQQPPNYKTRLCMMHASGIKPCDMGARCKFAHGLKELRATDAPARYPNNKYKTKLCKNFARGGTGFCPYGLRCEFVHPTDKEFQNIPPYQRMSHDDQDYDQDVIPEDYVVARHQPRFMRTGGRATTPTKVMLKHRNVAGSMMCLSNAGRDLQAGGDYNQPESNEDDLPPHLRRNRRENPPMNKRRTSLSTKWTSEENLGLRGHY
Description: potency of MEX-5 RNA-binding blockers – biochemical, C. elegans, fluorescence polarization, dose response (AID 1960).

Assay [8] in a line: microbe, parasite or virus in culture. The note with it: Mycobacterium tuberculosis. In kind it is functional.
For assay [9], the system named is Streptococcus sp. 'group A'. Description: Streptococcus pyogenes SK(-)GAS viability under kanamycin – luminescence, BacTiterGlo, confirmation, counter-screen for streptokinase expression inhibitor project, dose response (AID 1900). In kind it is functional, organism-based.
In a further assay the target is Nonstructural protein 1 (Influenza A virus, UniProt Q194T2). The assay is classed as functional, Influenza A virus (A/California/07/2009(H1N1)).
Assay [10] can be described thus: viability loss in HepG2 hepatoma cells – cell-based, ATP luminescence, cherry-pick, activator set 2, cytotoxicity control, dose response (AID 1053143). In kind it is functional.

Chain of Nonstructural protein 1 (Q194T2 whole entry): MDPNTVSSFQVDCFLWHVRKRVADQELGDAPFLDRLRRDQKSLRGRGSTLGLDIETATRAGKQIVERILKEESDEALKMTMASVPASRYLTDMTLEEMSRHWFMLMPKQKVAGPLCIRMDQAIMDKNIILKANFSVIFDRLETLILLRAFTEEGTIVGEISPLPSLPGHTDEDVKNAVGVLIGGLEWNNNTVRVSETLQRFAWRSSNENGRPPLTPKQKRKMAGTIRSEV
Chain of Paired box protein Pax-8 (Q06710 whole entry): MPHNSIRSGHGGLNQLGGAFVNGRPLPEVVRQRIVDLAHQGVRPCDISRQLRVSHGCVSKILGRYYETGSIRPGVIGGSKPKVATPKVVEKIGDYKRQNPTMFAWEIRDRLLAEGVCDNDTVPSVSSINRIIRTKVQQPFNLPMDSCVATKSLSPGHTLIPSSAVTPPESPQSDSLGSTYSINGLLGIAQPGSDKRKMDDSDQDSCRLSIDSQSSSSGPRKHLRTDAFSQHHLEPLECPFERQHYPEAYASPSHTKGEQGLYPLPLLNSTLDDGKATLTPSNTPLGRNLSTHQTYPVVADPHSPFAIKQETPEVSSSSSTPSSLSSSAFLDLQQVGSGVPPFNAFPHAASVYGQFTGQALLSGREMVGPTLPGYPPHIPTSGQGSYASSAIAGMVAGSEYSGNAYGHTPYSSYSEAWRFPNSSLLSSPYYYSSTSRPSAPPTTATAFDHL
Chain of Beta Lactamase (Q932Y6 whole entry): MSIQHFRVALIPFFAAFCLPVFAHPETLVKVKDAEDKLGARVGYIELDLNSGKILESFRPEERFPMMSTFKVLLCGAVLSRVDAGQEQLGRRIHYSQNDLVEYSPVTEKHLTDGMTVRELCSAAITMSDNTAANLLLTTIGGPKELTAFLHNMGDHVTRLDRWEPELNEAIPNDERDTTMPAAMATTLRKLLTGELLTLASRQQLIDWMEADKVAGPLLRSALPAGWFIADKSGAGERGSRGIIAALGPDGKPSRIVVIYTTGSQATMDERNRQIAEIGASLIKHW
Chain of G-protein coupled receptor 35 (Q9HC97 whole entry): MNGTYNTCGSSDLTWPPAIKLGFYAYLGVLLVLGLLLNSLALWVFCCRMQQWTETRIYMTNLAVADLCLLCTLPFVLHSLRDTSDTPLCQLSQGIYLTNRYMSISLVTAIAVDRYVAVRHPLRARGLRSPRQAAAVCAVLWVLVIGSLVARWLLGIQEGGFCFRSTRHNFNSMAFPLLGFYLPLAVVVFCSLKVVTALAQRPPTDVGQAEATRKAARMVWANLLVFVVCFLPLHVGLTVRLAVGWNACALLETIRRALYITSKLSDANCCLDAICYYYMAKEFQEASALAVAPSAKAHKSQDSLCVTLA
Chain of Melanocortin receptor 4 (P32245 whole entry): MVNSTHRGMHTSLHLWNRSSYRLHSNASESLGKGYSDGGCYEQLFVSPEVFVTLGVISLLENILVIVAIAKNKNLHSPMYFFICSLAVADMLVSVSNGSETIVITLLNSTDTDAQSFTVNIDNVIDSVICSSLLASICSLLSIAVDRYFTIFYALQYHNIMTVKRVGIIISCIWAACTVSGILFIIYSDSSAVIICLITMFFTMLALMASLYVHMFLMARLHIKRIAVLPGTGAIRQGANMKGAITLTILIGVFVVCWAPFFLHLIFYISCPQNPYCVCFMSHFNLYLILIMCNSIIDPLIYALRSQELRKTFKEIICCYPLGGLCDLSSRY

Take `CCC1CCCCN1S(=O)(=O)c1ccc(NC(=O)c2nc(S(C)(=O)=O)ncc2Cl)cc1` (stereo unspecified): the AC50 is 20.8 µM (active) in assay [1], 5.24 µM (active) in the assay on INS1 and 5.67 µM (active) on Paired box protein Pax-8. Besides, the IC50 on Melanocortin receptor 4 is 1.17 µM (active); in assay [2] it was 3.23 µM (active); at Beta Lactamase it was 11.1 µM (inactive); in assay [5], > 64.6 µM (inactive). For the same compound, the EC50 was 11.2 µM (active) in assay [3], 16.5 µM (active) in the assay on Streptococcus and 9.69 µM (active) in assay [4].
`CCCC[n+]1ccn(C2=C([N-]S(=O)(=O)c3ccc(Cl)cc3)C(=O)c3ccccc3C2=O)c1`: the IC50 in assay [6] was 19.3 µM (active). In addition, the EC50 in assay [7] was 85.9 µM (inconclusive).
For `CC(=O)c1cccc2c1N=C(c1[nH]c3ccccc3c1O)C2=O`, the CC50 in assay [8] is > 40 µM (active). In assay [9], the EC50 was 3.8 µM (active). Besides, on Nonstructural protein 1, the IC50 is 13.9 µM (active). Moreover, the AC50 in [10] is 22.4 µM (active).

For orientation: AC50 means the midpoint of the concentration-response curve, whichever way the signal moves. By IC50 is commonly meant the midpoint of a concentration-inhibition curve. As a reminder, the EC50 is the concentration at which the effect is half-maximal.
